Assay results from patent publication US10570141B2, “Substituted pyrrolopyrimidine CDK inhibitor, pharmaceutical composition containing same and use thereof” (CHIA TAI TIANQING PHARMACEUTICAL GROUP CO., LTD., priority 2016, dated 2020).
Where a name gives a salt, the structure may show the parent alone. Read-outs that look alike come from different tables or passages of the source.

Columns and labels:
[1] = rat, in vivo, po, 5 mg/kg
Method: (§4) 3 Healthy adult male rats were used for each tested compound. The tested compound was suspended in 20% sulfobutyl ether-β-cyclodextrin at a concentration of 1 mg/mL, and then was intragastrically administered at a single dose of 5 mg/kg (administered volume: 5 mL/kg). The animals to be intragastrically administered were fasted overnight prior to the experiment, i.e., fasted from 10 h prior to the administration to 4 h after the administration, and blood samples were collected in 0.25, 0.5, 1, 2, 4, 6, 8 and 24 h after the intragastric administration. About 0.3 mL of whole blood was collected from the orbital venous plexus, and put in a heparin anticoagulant tube. The sample was centrifuged at 4° C. at 4000 rpm for 5 min. The plasma was transferred to a centrifuge tube, and kept at −80° C. until analysis. Concentration of the tested compound in the plasma sample was analyzed using non-validated liquid chromatography-tandem mass spectrometry (LC-MS/MS). Plasma concentration-time data of individual animals were analyzed using WinNonlin (Professional Edition, Version 6.3; Pharsight Corporation) software. A non-compartment model was used for concentration analysis.

CDK4/CyclinD3 = CDK4/CyclinD3 (Homo sapiens (Human), UniProt P11802); assay: In vitro kinase activity inhibition assay of CDK4/CyclinD3 (LANCE method); type: biochemical; conditions: recombinant CDK4/CyclinD3 2 nM, ATP 200 μM, 1 h room temperature
Chain of CDK4/CyclinD3 (P11802 whole entry): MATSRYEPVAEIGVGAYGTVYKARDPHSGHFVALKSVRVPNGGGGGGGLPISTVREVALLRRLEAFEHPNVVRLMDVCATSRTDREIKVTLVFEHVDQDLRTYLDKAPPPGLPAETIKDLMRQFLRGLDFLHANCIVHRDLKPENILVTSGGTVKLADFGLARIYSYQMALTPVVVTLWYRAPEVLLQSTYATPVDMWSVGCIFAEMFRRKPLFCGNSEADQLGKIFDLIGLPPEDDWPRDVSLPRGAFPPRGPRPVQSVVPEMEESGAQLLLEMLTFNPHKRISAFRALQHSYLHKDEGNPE
Chain of CDK4/CyclinD3 (P30281 whole entry partner): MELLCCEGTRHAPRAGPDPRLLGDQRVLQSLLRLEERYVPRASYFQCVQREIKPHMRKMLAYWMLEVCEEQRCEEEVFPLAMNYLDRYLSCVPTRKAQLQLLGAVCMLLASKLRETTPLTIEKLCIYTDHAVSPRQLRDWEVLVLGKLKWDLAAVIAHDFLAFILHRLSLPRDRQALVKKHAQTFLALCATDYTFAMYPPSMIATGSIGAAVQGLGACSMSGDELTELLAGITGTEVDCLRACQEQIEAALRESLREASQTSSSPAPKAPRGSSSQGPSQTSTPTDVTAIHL
Description: (§1) A method for in vitro kinase activity inhibition assay of CDK4/CyclinD3 and CDK6/CyclinD3 is established as follows:
(§2) LANCE method of PerkinElmer Inc. was used in the assay, and recombinant CDK4/CyclinD3 (Item No.: 04-105) and CDK6/CyclinD3 (Item No.: 04-107) kinases were purchased from Cama Biosciences, Inc. Substrate ULight-MBP (Item No.: TRF0109) and Eu-labeled anti-MBP antibody (Item No.: TRF0201) were purchased from PerkinElmer. HEPES PH7.5 (Item No.: #15630080), DTT (Item No.: # D1532), MgCl2 (Item No.: # AM9530G), EGTA (Item No.: # E1219), and EDTA (Item No.: # AM9260G) were purchased from Life Technology. Firstly, a 1× buffer solution A (50 mM HEPES, PH 7.5, 10 mM MgCl2, 1 mM EGTA, 0.01% Tween 20 and 2 mM DTT) was prepared. A compound to be tested was dissolved in DMSO to 1 mM, serially diluted with DMSO, and then diluted 25-fold with the buffer solution A (final concentration of DMSO: 1%). CDK4/CyclinD3 and CDK6/CyclinD3 were diluted respectively with the buffer solution A. Finally, the buffer solution A was used to prepare the substrate and ATP. 4 μl of CDK4/CyclinD3 (final concentration: 2 nM) or CDK6/CyclinD3 (final concentration: 4 nM), 2 μl of the diluted compound, and 4 μl of a mixture of the substrate (final concentration: 50 nM) and ATP (final concentration: 200 μM) were added to reaction wells, and the resulting mixture was kept at room temperature to react for 1 h. Then, an EDTA solution was added to terminate the reaction, and Eu-labeled anti-MBP antibody was added and the resulting mixture was incubated at room temperature for additional 1 h. EnVision was used to read fluorescent signals (excitation wavelength: […], emission wavelength: […]).

CDK6/CyclinD3 = CDK6/CyclinD3 (Homo sapiens (Human), UniProt Q00534); assay: In vitro kinase activity inhibition assay of CDK6/CyclinD3 (LANCE method); type: biochemical; conditions: recombinant CDK6/CyclinD3 4 nM, ATP 200 μM, 1 h room temperature
Chain of CDK6/CyclinD3 (Q00534 whole entry): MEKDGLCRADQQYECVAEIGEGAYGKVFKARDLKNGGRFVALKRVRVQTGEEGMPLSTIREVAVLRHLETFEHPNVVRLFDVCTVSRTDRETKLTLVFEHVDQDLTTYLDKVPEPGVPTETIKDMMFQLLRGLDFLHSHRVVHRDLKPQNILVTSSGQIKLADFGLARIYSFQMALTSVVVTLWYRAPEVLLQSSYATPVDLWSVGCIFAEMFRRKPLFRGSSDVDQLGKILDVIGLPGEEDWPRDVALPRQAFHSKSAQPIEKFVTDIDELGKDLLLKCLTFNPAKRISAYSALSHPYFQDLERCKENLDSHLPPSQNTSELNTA
Chain of CDK6/CyclinD3 (P30281 whole entry partner): as the sequence (P30281 whole entry partner) above
Description: as §1, §2

Colo-205 cells = assay: Inhibition of proliferation of colon cancer cell line Colo-205 (Cell-Titer Glo); type: cell-based, human; conditions: 72 hours incubation, cell viability, read-out: IC50(Colo205)
Method: (§3) Colo-205 (Crown Bioscience Inc.) and MCF7 (Beijing Jinzijing Biology Medicine Technology Co., Ltd.) cells were inoculated into a 96-well plate (Corning, Item No.: 3599) at a density of 1000 cells/well, and incubated overnight. A compound at different concentrations (10000 nM, 3000 nM, 1000 nM, 300 nM, 100 nM, 30 nM, 10 nM, 3 nM, 1 nM, 0.3 nM, 0 nM, final concentration of DMSO: 0.1%) was added on the next day, and the incubation was continued for additional 72 hours. The culture medium was sucked with a vacuum pump, 50 ul of Cell-Titer Glo reagent (Promega, Item No.: G7572) was added to each well, and shaken for 10 min. Chemiluminescent signals were collected by EnVision® Multilabel Reader (PerkinElmer Inc.) to detect the cell viability and calculate the half maximal inhibitory concentration of the compound for inhibiting cell proliferation.

MCF7 cells = assay: Inhibition of proliferation of breast cancer cell line MCF7 (Cell-Titer Glo); type: cell-based, human; conditions: 72 hours incubation, cell viability
Method: as §3

[2] = Pharmacokinetics evaluation in rats after intragastric administration; conditions: male, rat, plasma, po, 5 mg/kg
Method: as §4

Row | Compound | IC50 (CDK4/CyclinD3) [nM] | IC50 (CDK6/CyclinD3) [nM] | IC50 (Colo-205 cells; Homo sapiens) [nM] | IC50 (MCF7 cells; Homo sapiens) [nM] | AUC(0-inf) [2] [ng·h/mL] | Cmax [2] [ng/mL] | Tmax [2] [h] | half-life [2] [h] | further results
1 | CN(C)C(=O)c1cc2cnc(Nc3ccc(N4CCNCC4)cn3)nc2n1C1CCCC1.Cl [Comparative Example 1] |  |  |  |  |  |  |  |  | AUC(0-inf) [1]: 120 ng·h/mL; Cmax [1]: 15.8 ng/mL; T1/2 [1]: 4.25 h; Tmax [1]: 2.67 h
2 | CN(C)C(=O)c1cc2cnc(Nc3ccc(N4CCNCC4)cn3)nc2n1C1CCCC1.Cl [Comparative Example 1, 7-cyclopentyl-2-(5-(piperazin-1-yl-pyridin-2-ylamino)-7H-pyrrolo[2,3-d]pyrimidine-6-carboxylic acid dimethylamide (ribociclib) hydrochloride] |  |  |  |  |  |  |  |  | IC50 (Colo-205 cells): 2690 nM; IC50 (MCF7 cells): 326 nM
3 | CN(C)C(=O)c1cc2cnc(Nc3ccc(C4=CCNCC4)cn3)nc2n1C1CCCC1.Cl [Example 6, 7-cyclopentyl-6-N,N-dimethylcarbamoyl-N-(5-(1,2,3,6-4H-pyridin-4-yl)pyridin-2-yl)-7H-pyrrolo[2,3-d]pyrimidin-2-amine hydrochloride] | 2.37 | 30.6 | 1260 | 333 | 627 | 74.3 | 3.33 | 3.76 | 
4 | CS(=O)(=O)c1cc2cnc(Nc3ccc(C4=CCNCC4)cn3)nc2n1C1CCCC1.Cl [Example 4, 7-cyclopentyl-6-methylsulfonyl-N-(5-(1,2,3,6-4H-pyridin-4-yl)pyridin-2-yl)-7H-pyrrolo[2,3-d]pyrimidin-2-amine hydrochloride] | 2.57 | 11.1 | 312 | 175 | 889 | 90 | 3 | 3.28 | 

Now from value to molecule, other results behind:

Row | IC50 (CDK4/CyclinD3) [nM] | IC50 (CDK6/CyclinD3) [nM] | Compound | IC50 (Colo-205 cells; Homo sapiens) [nM] | IC50 (MCF7 cells; Homo sapiens) [nM] | AUC(0-inf) [2] [ng·h/mL] | Cmax [2] [ng/mL] | Tmax [2] [h] | half-life [2] [h] | further results
5 | 3.4 | 18.7 | CN(C)C1CCN(c2ccc(Nc3ncc4cc(S(C)(=O)=O)n(C5CCCC5)c4n3)nc2)CC1 [Example 3, 7-cyclopentyl-6-methylsulfonyl-N-(5-(4-(dimethylamino)piperidin-1-yl)pyridin-2-yl)-7H-pyrrolo[2,3-d]pyrimidin-2-amine hydrochloride] |  |  |  |  |  |  | 
6 | 0.8 | 5.7 | CS(=O)(=O)c1cc2cnc(Nc3ccc(N4CCNCC4)cn3)nc2n1C1CCCC1 [Example 1, 7-cyclopentyl-6-methylsulfonyl-N-(5-(piperazin-1-yl)pyridin-2-yl)-7H-pyrrolo[2,3-d]pyrimidin-2-amine hydrochloride] | 271 | 114 | 1960 | 255 | 1.33 | 7.23 | 
7 | 2.12 | 21 | CCS(=O)(=O)c1cc2cnc(Nc3ccc(N4CCNCC4)cn3)nc2n1C1CCCC1 [Example 2, 7-cyclopentyl-6-ethylsulfonyl-N-(5-(piperazin-1-yl)pyridin-2-yl)-7H-pyrrolo[2,3-d]pyrimidin-2-amine hydrochloride] |  |  |  |  |  |  | 
8 | 1.46 | 9.85 | CS(=O)(=O)c1cc2cnc(Nc3ccc(C4CCNCC4)cn3)nc2n1C1CCCC1 [Example 5, 7-cyclopentyl-6-methylsulfonyl-N-(5-(piperidin-4-yl)pyridin-2-yl)-7H-pyrrolo[2,3-d]pyrimidin-2-amine hydrochloride] | 470 |  |  |  |  |  | 
